Laboratory results as given in patent publication US7945392B2, “Methods and systems for drug screening and computational modeling based on biologically realistic neurons” (McLean Hospital Corporation, priority 2005, dated 2011).

Assays:
[1] = molecular target: D1 receptor (Homo sapiens, UniProt P21728); assay: Fraction of receptors occupied, calculated from drug concentration and Ki; settings: at a therapeutic olanzapine level
Source text: In particular, affinities of many drugs for receptors are well known. For example, Goodman and Gilmans “The Pharmacological Basis of Therapeutics,” Tenth Edition.

[2] = highly selective antagonist at the D4 receptor; cited from earlier work

D1 receptor, sequence (P21728 whole entry): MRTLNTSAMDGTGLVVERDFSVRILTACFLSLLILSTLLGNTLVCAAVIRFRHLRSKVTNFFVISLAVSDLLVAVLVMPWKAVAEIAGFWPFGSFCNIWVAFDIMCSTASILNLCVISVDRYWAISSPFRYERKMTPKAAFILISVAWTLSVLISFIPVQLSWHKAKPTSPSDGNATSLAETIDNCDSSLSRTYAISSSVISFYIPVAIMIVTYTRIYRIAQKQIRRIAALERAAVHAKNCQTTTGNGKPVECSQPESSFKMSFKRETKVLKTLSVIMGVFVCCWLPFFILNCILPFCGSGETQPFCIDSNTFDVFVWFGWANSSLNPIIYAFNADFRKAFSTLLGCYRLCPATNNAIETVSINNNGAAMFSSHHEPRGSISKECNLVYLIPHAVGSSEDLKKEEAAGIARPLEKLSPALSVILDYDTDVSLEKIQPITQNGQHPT

| SMILES | D1 receptors blocked (antagonized) [1] | antipsychotic effectiveness [2] |
| --- | --- | --- |
| Cc1cc2c(s1)Nc1ccccc1N=C2N1CCN(C)CC1 [olanzapine] | approximately 47% |  |
| Clc1ccc(N2CCN(Cc3c[nH]c4ncccc34)CC2)cc1 [L-745870] |  | ineffective |
